From ChEMBL document CHEMBL1201862, “PubChem BioAssay data set” (2004)
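Five compound concentrations were applied to cells in 96-well plates for 48 hours; endpoints were derived by simple linear interpolation of the resulting dose-response curve. Here, GI50 denotes the concentration required for 50% inhibition of growth.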 Calls of active or inactive are those of the source. Cut-off read from the data, not from the text of the source: active = GI50 up to about 1.1 µM and inactive = higher.

Experiments:
Test in all cases: DTP human tumour cell line panel, 48 h
786-0 = test system: 786-0
CCRF-CEM = test system: CCRF-CEM
COLO 205 = test system: COLO 205
DMS-273 = test system: DMS-273
EKVX = test system: EKVX
HT-29 = test system: HT-29
KM12 = test system: KM12
M14 = test system: M14
MOLT-4 = test system: MOLT-4
OVCAR-4 = test system: OVCAR-4
OVCAR-8 = test system: OVCAR-8
RPMI-8226 = test system: RPMI-8226
RXF 393 = test system: RXF 393
SK-OV-3 = test system: SK-OV-3
UACC-62 = test system: UACC-62
UO-31 = test system: UO-31
NCI-H226 = test system: NCI-H226

Measured: GI50

Cc1cc(C)nc(NS(=O)(=O)c2ccc(NC(=O)c3cccc4c(Nc5ccc(S(=O)(=O)N=C(N)N)cc5)c5ccccc5nc34)cc2)n1
inactive: 786-0 30.3 µM | CCRF-CEM 45.6 µM | COLO 205 37.9 µM | DMS-273 19.7 µM | EKVX 35 µM | HT-29 37.1 µM | KM12 6.17 µM | M14 94.6 µM | MOLT-4 32.8 µM | OVCAR-4 14.5 µM | OVCAR-8 7.94 µM | RPMI-8226 15.1 µM | RXF 393 15.6 µM | SK-OV-3 > 100 µM | UACC-62 29.9 µM | UO-31 46.6 µM

CN(C)CC1CCC/C1=N\O (stereo not drawn)
inactive: 786-0 > 100 µM | CCRF-CEM > 100 µM | COLO 205 > 100 µM | DMS-273 > 100 µM | HT-29 > 100 µM | M14 > 100 µM | MOLT-4 > 100 µM | NCI-H226 > 100 µM | OVCAR-4 > 100 µM | OVCAR-8 > 100 µM | RPMI-8226 > 100 µM | RXF 393 > 100 µM | SK-OV-3 > 100 µM | UACC-62 > 100 µM | UO-31 > 100 µM

Cc1cn(C2CC(OC3CCCCO3)C(CO)O2)c(=O)[nH]c1=O (stereo not drawn)
inactive: 786-0 > 100 µM | CCRF-CEM > 100 µM | COLO 205 > 100 µM | DMS-273 > 100 µM | EKVX > 100 µM | HT-29 > 100 µM | KM12 > 100 µM | M14 > 100 µM | MOLT-4 > 100 µM | NCI-H226 > 100 µM | OVCAR-4 > 100 µM | OVCAR-8 > 100 µM | RPMI-8226 > 100 µM | RXF 393 > 100 µM | SK-OV-3 > 100 µM | UO-31 > 100 µM

COC(=O)c1nc(-c2ccc(Cl)c(Cl)c2)nc2ccc(Cl)cc12
inactive: 786-0 27.5 µM | CCRF-CEM > 10 µM | COLO 205 > 100 µM | DMS-273 81.1 µM | EKVX 59.7 µM | HT-29 > 100 µM | KM12 > 100 µM | MOLT-4 > 10 µM | OVCAR-8 47.4 µM | RPMI-8226 > 100 µM | RXF 393 22.8 µM | SK-OV-3 20.6 µM | UACC-62 87.3 µM | UO-31 33.6 µM

CC(=O)OC12c3ccccc3C1CCCCCC21OCCCO1 (stereo not drawn)
inactive: 786-0 > 100 µM | CCRF-CEM > 100 µM | COLO 205 > 100 µM | DMS-273 > 100 µM | HT-29 > 100 µM | KM12 > 100 µM | M14 > 100 µM | MOLT-4 > 100 µM | NCI-H226 > 100 µM | OVCAR-4 > 100 µM | OVCAR-8 > 100 µM | RPMI-8226 > 100 µM | RXF 393 > 100 µM | SK-OV-3 > 100 µM | UACC-62 > 100 µM | UO-31 > 100 µM

O=C(O)/C(Cl)=C(\Cl)C(=O)NC1C2CC3CC(C2)CC1C3 (stereo not drawn)
inactive: 786-0 > 100 µM | CCRF-CEM > 100 µM | COLO 205 > 100 µM | DMS-273 > 100 µM | EKVX > 100 µM | HT-29 > 100 µM | KM12 9.64 µM | M14 > 100 µM | MOLT-4 > 100 µM | NCI-H226 > 100 µM | OVCAR-4 > 100 µM | OVCAR-8 > 100 µM | RPMI-8226 > 100 µM | SK-OV-3 > 100 µM | UACC-62 > 100 µM | UO-31 > 100 µM

COC(=O)C1=C(c2cc(OC)c(OC)c(OC)c2)OC(c2ccc3c(c2)OCO3)C1 (stereo not drawn)
inactive: 786-0 35.2 µM | CCRF-CEM 27.6 µM | COLO 205 12.8 µM | DMS-273 25.4 µM | EKVX 27 µM | HT-29 27.2 µM | KM12 13.2 µM | M14 29.4 µM | MOLT-4 15.8 µM | NCI-H226 56 µM | OVCAR-4 40.5 µM | OVCAR-8 37.9 µM | RPMI-8226 33.4 µM | RXF 393 49 µM | SK-OV-3 45.5 µM | UACC-62 5.05 µM | UO-31 15.5 µM

CC(CC(=O)N1C(=O)C(C)(C)[C@@H](O)[C@H]1CC(C)C(Cl)(Cl)Cl)C(Cl)(Cl)Cl (stereo partly drawn)
inactive: 786-0 > 100 µM | CCRF-CEM > 100 µM | COLO 205 > 100 µM | DMS-273 > 100 µM | EKVX > 100 µM | HT-29 > 100 µM | KM12 > 100 µM | M14 > 100 µM | MOLT-4 > 100 µM | NCI-H226 > 100 µM | OVCAR-4 > 100 µM | OVCAR-8 > 100 µM | RPMI-8226 > 100 µM | SK-OV-3 > 100 µM | UACC-62 > 100 µM | UO-31 > 100 µM

CC1(C)OB(O)OC1(C)C
inactive: 786-0 > 100 µM | CCRF-CEM > 100 µM | COLO 205 > 100 µM | DMS-273 > 100 µM | EKVX > 100 µM | HT-29 > 100 µM | KM12 > 100 µM | M14 > 100 µM | MOLT-4 > 100 µM | NCI-H226 > 100 µM | OVCAR-4 > 100 µM | OVCAR-8 > 100 µM | RPMI-8226 > 100 µM | RXF 393 > 100 µM | SK-OV-3 > 100 µM | UACC-62 > 100 µM | UO-31 > 100 µM
